From patent publication US20030235873A1, “Process for detecting enzyme activity in an immunoassay” (priority 2000, published 2003)
pIC50, pKd: −log10 of the molar value. *1 amine or outer side, *2 acyl side, *3 side chain or, on linkers, in order; H or OH if unused. Where a SMILES comes first, the peptide text is derived from it. Bridges are numbered along the chain shown (N, C = ends). Where no end group is shown, it is not given here. [ ]: non-standard residue; d: D form. Adda = CO[C@@H](Cc1ccccc1)[C@@H](C)/C=C(C)/C=C/[C@H](N[*:1])[C@H](C)C(=O)[*:2]; dAsp(3S-Me) = C[C@H](C(=O)[*:3])[C@@H](N[*:1])C(=O)[*:2]; d(γGlu) = O=C(O)[C@@H](CCC(=O)[*:2])N[*:1]; pY = N[C@@H](Cc1ccc(OP(=O)(O)O)cc1)C(=O)O; pT = C[C@@H](OP(=O)(O)O)[C@H](N)C(=O)O; NMeDha = C=C(NC)C(=O)O

What was measured:
[1] = tested on: polyclonal anti active JNK antibody #9251 (New England Biolabs NEB #9251); test: Fluorescence polarization binding of TAMRA-labelled JNK active-site peptides to anti-active JNK antibody; details: peptide at 5 nM
Method: This polyclonal antibody detects all three isoforms of the SAPK1/JNK proteins only when they are activated by dual phosphorylation at threonine183/tyrosinel85. Binding of poly-clonal anti active JNK antibody #9251 (concentration: 0.02 mg/ml, equiv. 130 nM) to TAMRA-labelled P1*° peptide (at 5 nM) was measured at different antibody concentrations by fluorescence polarization. As a control, no binding of the antibody to the monophosphorylated TAMRA-P1° peptide (at 5 nM) is detected.
The results of this experiment are illustrated in FIG. 4. […] The polarization values dramatically increase when using the double-phosphorylated TAMRA-P1*° peptide in contrast to mono-phosphorylated labelled TAMRA-P1° peptide (sequences see below).

PP2A phosphatase = target: T1, PP2A phosphatase (Homo sapiens, UniProt P67775); test: Direct phosphatase assay: inhibition of PP2A-dependent dephosphorylation of TAMRA-P1°* peptide (fluorescence polarization read-out); type: biochemical
T1 construct: purchased Upstate Biotech 14-111 (lot no. 20574)

[2] = tested on: antibody NEB #9251 (polyclonal anti-active JNK antibody); test: Fluorescence correlation spectroscopy competition of the NEB #9251 antibody-P1°*-TAMRA complex with non-fluorescent peptides; type: binding; details: antibody 1:20 diluted, TAMRA-labelled peptide P1*° 5 nM
[3] = tested on: ac(K9)-p(S10)-specific antibody from New England Biolabs (#9711); test: Binding of TAMRA-labelled histone H3 peptides to ac(K9)-p(S10)-specific antibody; details: FIG. 15 and 16
Text: (§1) The histone deacetylase assay uses fluorescently-labelled peptides (TAMRA dye as a label) derived from histone H3 sequence. In the assay two different polyclonal antibodies are used which bind specifically to acetylated lysine redidues (ac(K) at positions ac(K9) or […]). Acetylation of a single lysine results in a relative small change of the molecular structure of the aminoacid side chain. The resulting change in the binding affinity to acetyl-specific antibodies is in general difficult to detect in a homogeneous binding assay. According to the invention, therefore an additional modification (phosphorylation of serine at position (S10)) was included within the H3-peptide sequence to enhance the affinity of the peptides to the applied antibodies. From the results of three independing binding experiments (FIGS. 15-17) it is evident that dual-modified peptide conjugates confer a higher affinity for the applied antibodies when compared to mono-modified peptide conjugates. This characteristic is of great value to measure the different acetylation states of lysine residues using acetyl-specific antibodies. In principle, the described binding assay can be applied both for the detection of acetyltransferase or deacetylase activity, in particular histone acetyltransferase/deacetylase.

[4] = tested on: p(S10)-ac(K14)-specific antibody from Upstate Biotech (#07-081); test: Binding of TAMRA-labelled histone H3 peptides to p(S10)-ac(K14)-specific antibody; details: FIG. 17
Text: as §1

T1 sequence (P30153 2-589): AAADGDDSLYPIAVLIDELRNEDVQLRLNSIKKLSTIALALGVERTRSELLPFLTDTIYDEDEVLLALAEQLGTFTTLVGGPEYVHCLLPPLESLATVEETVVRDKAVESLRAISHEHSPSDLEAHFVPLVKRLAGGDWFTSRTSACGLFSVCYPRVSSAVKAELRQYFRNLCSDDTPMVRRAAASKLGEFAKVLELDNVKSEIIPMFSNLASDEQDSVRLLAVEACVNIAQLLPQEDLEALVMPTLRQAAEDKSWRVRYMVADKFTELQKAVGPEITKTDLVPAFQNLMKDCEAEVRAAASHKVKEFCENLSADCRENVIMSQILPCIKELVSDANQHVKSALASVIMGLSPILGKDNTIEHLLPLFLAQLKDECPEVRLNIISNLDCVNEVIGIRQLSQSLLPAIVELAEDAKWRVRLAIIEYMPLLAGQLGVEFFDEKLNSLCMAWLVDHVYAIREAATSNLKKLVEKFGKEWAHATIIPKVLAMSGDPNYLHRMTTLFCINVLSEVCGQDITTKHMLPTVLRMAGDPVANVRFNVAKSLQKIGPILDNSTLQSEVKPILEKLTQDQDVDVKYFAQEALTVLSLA
T1 sequence (P67775 whole entry): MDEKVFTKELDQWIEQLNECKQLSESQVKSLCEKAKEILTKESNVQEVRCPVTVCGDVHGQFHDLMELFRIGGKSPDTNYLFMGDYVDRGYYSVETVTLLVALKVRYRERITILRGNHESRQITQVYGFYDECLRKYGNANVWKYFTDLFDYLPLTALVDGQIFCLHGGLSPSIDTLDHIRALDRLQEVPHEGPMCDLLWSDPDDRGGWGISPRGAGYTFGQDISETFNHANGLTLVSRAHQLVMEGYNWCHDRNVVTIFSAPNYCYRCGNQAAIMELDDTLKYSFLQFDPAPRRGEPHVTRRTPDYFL

Molecule: 5-TAMRA-AEEA-Lys-Phe-Met-Met-Thr-Pro-pTyr-Val-Val-Thr-Arg-NH2 (chain 1 KFMMTP; chain 2 YVVTR; not fully specified; 5-TAMRA-AEEA, phospho residue, C-terminal amide; printed: Lys-Phe-Met-Met-Thr-Pro-; printed: Tyr-Val-Val-Thr-Arg-) [TAMRA-P1°]
- Binding of the antibody to the peptide ([1]; control): no binding

Molecule: 5-TAMRA-AEEA-Lys-Phe-Met-Met-pThr-Pro-pTyr-Val-Val-Thr-Arg-NH2 (chain 1 KFMM; chain 2 YVVTR; not fully specified; 5-TAMRA-AEEA, pThr-Pro, phospho, C-terminal amide; printed: Lys-Phe-Met-Met-; printed: Tyr-Val-Val-Thr-Arg-) [P1*°-TAMRA]
- pKd ([1]; different antibody concentrations, read-out: Affinity of polyclonal anti-active-JNK antibody for peptide (KD)): 8.59

Molecule: C=C1C(=O)N[C@H](C)C(=O)N[C@@H](CC(C)C)C(=O)N[C@@H](C(=O)O)[C@H](C)C(=O)N[C@@H](CCCNC(=N)N)C(=O)N[C@@H](/C=C/C(C)=C/[C@H](C)[C@H](Cc2ccccc2)OC)[C@H](C)C(=O)N[C@@H](C(=O)O)CCC(=O)N1C [microcystin-LR] (R[Adda][d(γGlu)][NMeDha][dA]L[dAsp(3S-Me)]-OH; lactam N-7)
- Inhibition of PP2A (PP2A phosphatase): full inhibition

Molecule: C=C1[C@@H](O)[C@@H]2O[C@]3(CC[C@H](/C=C/[C@@H](C)[C@@H]4CC(C)=C[C@@]5(O[C@H](C[C@@](C)(O)C(=O)O)CC[C@H]5O)O4)O3)CC[C@H]2O[C@@H]1[C@@H](O)C[C@H](C)[C@H]1O[C@@]2(CCCCO2)CC[C@H]1C [ocadaic acid]
- pIC50 (PP2A phosphatase; PP2A 0.003 units, P1°*-TAMRA peptide 10 nM, 30° C., read-out: IC50 (half-maximal inhibitory concentration, PP2A-dependent dephosphorylation of TAMRA-P1°* peptide)): 9.52

Molecule: H-KFMM[pT]P[pY]VVTR-NH2 [P1*°]
- Competition with TAMRA-labelled peptide P1*° for binding to the antibody [2]: able to compete effectively
- pIC50 ([2]; read-out: IC50 (competition of antibody binding to TAMRA-labelled peptide P1*°)): 8.30

Molecule: H-Lys-Phe-Met-Met-Thr-Pro-pTyr-Val-Val-Thr-Arg-NH2 (chain 1 H-KFMMTP; chain 2 [pY]VVTR-NH2; not fully specified (C-terminus); also: chains 1 and 2 are one peptide continuing through pTyr) [P1°, monophosphorylated control peptide]
- Competition with TAMRA-labelled peptide P1*° for binding to the antibody [2]: did note compete effectively

Molecule: H-Lys-Phe-Met-Met-pThr-Pro-Tyr-Val-Val-Thr-Arg-NH2 (chain 1 H-KFMM; chain 2 [pT]PYVVTR-NH2; not fully specified (C-terminus); also: chains 1 and 2 are one peptide continuing through pThr) [P1*, monophosphorylated control peptide]
- Competition with TAMRA-labelled peptide P1*° for binding to the antibody [2]: did note compete effectively

Molecule: TAMRA-A-R-K-p(S10)-T-T-G-K-A [peptide #13]
- Binding of the ac(K9)-p(S10)-specific antibody to the peptide [3]: only low binding

Molecule: TAMRA-A-R-K-p(S10)-T-T-G-ac(K14)-A-P [peptide #11]
- Binding of the ac(K9)-p(S10)-specific antibody to the peptide [3]: only low binding
- Binding of the p(S10)-ac(K14)-specific antibody to the peptide [4]: binding

Molecule: TAMRA-A-R-ac(K9)-S-T-T-G-K-A [peptide #12]
- Binding of the ac(K9)-p(S10)-specific antibody to the peptide [3]: only low binding

Molecule: TAMRA-A-R-ac(K9)-p(S10)-T-T-G-K-A-P [peptide #10]
- Binding of the ac(K9)-p(S10)-specific antibody to the peptide [3]: binding
- Binding of the p(S10)-ac(K14)-specific antibody to the peptide [4]: only low binding
